From publication PMC8179271, “Identification of β-strand mediated protein–protein interaction inhibitors using ligand-directed fragment ligation” (Chemical Science, 2021)
Where two headings read alike, the source gives them in different places. Residues, ends and D or L forms follow the SMILES beside them. *: point of attachment. FITC = O=C1OC2(c3ccc(O)cc3Oc3cc(O)ccc32)c2ccc(NC(=S)*)cc21; Ahx = NCCCCCC(=O)O

Columns and labels:
Type in all cases: binding
SHANK1 PDZ [1] = target: T1, SHANK1 PDZ (Homo sapiens, UniProt Q9Y566); experiment: Fluorescence anisotropy competition assay (FITC-Ahx-TRL-COOH tracer); conditions: 50 mM NH4Ac pH 6.5, 10 mM aniline
T1 construct: Human Shank1 PDZ domain (656-762) was cloned into the pGEX-6P-2 expression vector; GST (N, cleaved yes); made in house; host or cells: E. coli BL21 Gold
T1 sequence (Q9Y566 656-762): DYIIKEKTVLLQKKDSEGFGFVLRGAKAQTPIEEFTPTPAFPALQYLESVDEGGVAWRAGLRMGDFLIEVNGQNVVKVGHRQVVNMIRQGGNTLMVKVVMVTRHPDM
Method: (d) FA competition curves for hybrids from the extended screen. All screening and validation assays were performed in 50 mM NH4Ac buffer, pH 6.5, 10 mM aniline using 1 μM final protein concentration and 10 nM FITC-Ahx-TRL-COOH as tracer at room temperature. […] Anisotropy is expressed relative to the control experiment where no competitor is present. Hit thresholds were defined based on the relative anisotropy of the (i) buffer control (rbuffer − 3σ) and (ii) the TRL control (rTRL − 3σ). Compounds below these thresholds are coloured blue and red respectively.
(0.22 µm membrane) and applied to glutathione beads and washed with 10 CV 20 mM Tris, pH 8, 500 mM NaCl. GST was cleaved on-column overnight at 4 °C using Prescission protease.
The eluted fractions were concentrated and purified by size-exclusion chromatography on S75 26/60 pg column in 20 mM Tris, 150 mM NaCl, 5% glycerol pH 7.5 buffer. Collected fractions were analysed by SDS-PAGE and concentrated. Pure protein was analysed by high resolution […]
determined by UV-VIS spectroscopy using the 8480 M-1 cm-1 extinction coefficient. […]
2.3. Aldehyde library selection
A diverse subset of fragments was selected from commercially available small molecule aldehydes (AldrichCPR, Fluorochem and Acros). Available compounds having one aldehyde functionality were filtered first based on physicochemical properties: 80 Da < MW < 400 Da, HBA, HBD ≤ 3, and clogP ≤ 5. To select a diverse set of compounds , first, binary molecular fingerprint s were generated for each molecule using the FragFp descriptor implemented in DataWarrior (openmolecules.org) , which relies on a predefined substructure fragment library and is used to compare 2D structural similarities. Then, using the same software , structurall y dissimilar subset of compounds was selected based on the molecular fingerprints. Compounds were further excluded based on undesired functional groups and commerical availability , […]
carboxylic acid functional groups.
2.4. Fluorescence anisotropy
Fluorescence anisotropy assays were performed in 384-well plates (Greiner Bio-one) and the fluorescence anisotropy measured using a Perkin Elmer EnVisionTM 2103 MultiLabel plate reader, with excitation at 480 nm (30 nm bandwidth), polarised dichroic mirror at 505 nm and […]
°C. Fluorescence anisotropy data was processed as described previously.4 The data from both […]
the P (perpendicular intensity) and S (parallel intensity) channels, resulting from this measurement and corrected by subtracting the corresponding control wells, were used to calculate the intensity and anisotropy for each well following Equations 1 and 2: […]
r = anisotropy, I = total intensity, P = perpendicular intensity, S = parallel intensity, G is an […]
Assays were performed in 50 mM NH4Ac, 10 mM aniline, pH 6.5 buffer. Shank 1 PDZ was dialysed into the assay buffer prior to the experiment. […]

SHANK1 PDZ [2] = target: T1, SHANK1 PDZ; experiment: Isothermal titration calorimetry (ITC); conditions: for Kd / n (ITC stoichiometry) / ΔH / ΔS: 25 mM Tris pH 7.5, 150 mM NaCl, 25 °C
Method: Fitted thermograms and thermodynamic signatures for the tested peptides and hydrazones. […] For individual raw ITC data and fitted thermograms see Fig. S14. ^† […]
Figure S14. Raw ITC data (top) and fitted thermograms (bottom) for the tested hydrazone hits and […]
0.75-1 mM peptide or hydrazone solution to 75-150 µM protein.
(1 picture or pasted object on this page, not shown here)
2.5. Isothermal tritration calorimetry
ITC experiments were carried out using Microcal ITC200i instrument (Malvern) at 25°C […]
Shank1 PDZ was dialysed against the buffer prior to experiment, lyophilized peptides and hydrazones were dissolved in the same buffer. 75 or […]
depending on compound solubility, from the syringe using 2 µL injections with 120 s spacing between the injections for 20 injection. Heats of peptide dilution w ere measured by titrating the peptide into buffer and subtracted from each measurement. Dat a was analysed using Microcal Origin 8 and fitt ed to a one-binding site model. […]

[3] = target: T2, PDZ domain of PSD-95 (PSD-95 PDZ1) (Homo sapiens, UniProt P78352); experiment: 1H-15N HSQC chemical shift perturbation titration; conditions: Fig. S24
T2 construct: made in house
T2 sequence (P78352 with tags, fused parts or gaps): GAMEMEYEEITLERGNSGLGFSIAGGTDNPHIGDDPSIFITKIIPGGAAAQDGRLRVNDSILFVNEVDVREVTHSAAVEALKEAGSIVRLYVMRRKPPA
Excerpt: Since Class I PDZ domains bind to consensus sequences,[71,72] we set out to further assess the selectivity of the peptide-fragment hybrids against another Class I PDZ domain. We compared the ability to bind to SHANK1 PDZ against the ability to bind to the PDZ domain of PSD-95, a therapeutically important target in neuronal diseases and cancer.[58] We monitored the binding using chemical shift perturbations in the ^1H–^15N HSQC spectra of the PDZ domain of PSD-95 (Fig. S22, S23, Tables S7 and S8 ^†). […] However, PSD-95 also lacks the patch of cationic residues proximal to the C-terminal carboxylate binding site. Such a result provides confidence that the dynamic ligation screening approach used here can encode and retain selectivity.
PSD 95 PDZ1 amino acid sequence
Figure S22. Overlay of plots for 4-A047 with Ligand:protein ratio ranging from 1:1 to 100:1. The gradual change in chemical shifts of limited residues indicate that the binding of the ligand is specific and to the putative ligand binding site.
Figure S23. Mapping of chemical shift changes onto the structure of PSD95 PDZ1 using PDB Accession Code 2KA9 (cypin peptide in magenta). Residues whose chemical shifts are affected are coloured yellow; these residues line the binding site. […]
Table S7. Concentration dependent shift changes of compound 4-A047 for a few residues whose chemical shifts have been assigned […]

SHANK1 PDZ [4] = target: T1, SHANK1 PDZ; experiment: Fluorescence anisotropy direct titration with FITC-labelled GKAP tracer
Method: A diversity-based selection was performed on commercially available aldehyde fragments obeying guidelines for fragment-based drug design,[75] resulting in a small library of 129 compounds (A001–A129, Table S1 and Fig. S1 ^†). […] To allow us to perform the hybrid formation and screening in the presence of the target protein in a single step, it was necessary to first establish that SHANK1 PDZ was still able to bind to its natural ligand under the same conditions.
Figure S2. Rate of hydrazone exchange in 50 mM ammonium-acetate (NH4Ac), pH 6.5, 10 mM aniline buffer using 100 µM compound 4-A001 and 5 equivalents of three different aldehydes (corresponding to R2 groups) at room temperature. Hydrazone exchange was monitored by LC -MS; peaks for extracted ion chromatograms were integrated and normalized . […]
Figure S3. Fluorescence anisotropy direct titration of S HANK1 PDZ in 50 mM NH4Ac, pH 6.5 10 mM aniline containing buffer using 50 nM FITC-Ahx-GKAP as tracer. Plate was read after 24 hr incubation […]
Assays were performed in 50 mM NH4Ac, 10 mM aniline, pH 6.5 buffer. […] Fluorescence anisotropy direct titration assays were performed with protein concentration diluted over 24 points using ½ dilutions. […]
final protein concentration. […] For control wells, the tracer peptide was replaced with an identical volume of assay buffer and plates were read immediately, and after an hour or after 24 hours . […]

[5] = 1 µM Shank1 PDZ, 10 nM FITC-Ahx-TRL-COOH, plates read immediately, room temperature, read-out: IC50 (Fig. S4, parent peptides and benzaldehyde hydrazones)
[6] = Table S2, relative to core Ac-TRL-OH motif
[7] = x-A001 incubated with 5 equiv aldehyde in presence of protein for 24 h, then 10 nM FITC-Ahx-TRL-COOH, SHANK1 PDZ 1 M, read-out: IC50 (Fig. S7-S9, S11, S12, hybrids selected for validation from single point screens)

Kd (SHANK1 PDZ [2]) [µM] | IC50 (SHANK1 PDZ [1]; [7]) [µM] | Compound | other results
16 ± 3 | – | CC(C)C[C@H](NC(=O)[C@H](CCCNC(=N)N)NC(=O)[C@@H](NC(=O)CCC(=O)NN=Cc1ccccc1)[C@@H](C)O)C(=O)O [3-A001] | IC50 (SHANK1 PDZ [1]; [5]): 51 ± 3 µM; n (ITC stoichiometry) (SHANK1 PDZ [2]): 1.04 ± 0.04; ΔH (SHANK1 PDZ [2]): -2.32 ± 0.14 kcal/mol; ΔS (SHANK1 PDZ [2]): 59.0 J mol^−1 K^−1; GE group efficiency (-ΔΔG/ΔNnH) (SHANK1 PDZ [2]; [6]): 0.07; ΔΔG (ΔGCompound-ΔGAc-TRL-OH) (SHANK1 PDZ [2]; [6]): -0.201 kcal/mol
8 ± 1 | 14 ± 1 | CC(C)C[C@H](NC(=O)[C@H](CCCNC(=N)N)NC(=O)[C@@H](NC(=O)CCC(=O)N/N=C/c1ccccc1C(=O)O)[C@@H](C)O)C(=O)O [3-A047] | –
10 ± 1 | 11 ± 1 | CC(C)C[C@H](NC(=O)[C@H](CCCNC(=N)N)NC(=O)[C@@H](NC(=O)CCC(=O)N/N=C/c1ccc(C(=O)O)cc1)[C@@H](C)O)C(=O)O [3-A048] | –
7.1 ± 0.9 | 9 ± 1.6 | CC(C)C[C@H](NC(=O)[C@H](CCCNC(=N)N)NC(=O)[C@@H](NC(=O)CCC(=O)N/N=C/c1ccc(Cl)cc1C(=O)O)[C@@H](C)O)C(=O)O [3-A144] | –
4.8 ± 0.4 | – | CC(C)C[C@H](NC(=O)[C@H](CCCNC(=N)N)NC(=O)[C@@H](NC(=O)CCC(=O)N/N=C/c1cccc(OC(C(=O)O)c2ccccc2)c1)[C@@H](C)O)C(=O)O (stereo partly drawn) [3-A161] | –
14.8 ± 0.8 | – | CC(C)C[C@H](NC(=O)[C@H](CCCNC(=N)N)NC(=O)[C@@H](NC(=O)CCCC(=O)NN=Cc1ccccc1)[C@@H](C)O)C(=O)O [4-A001] | IC50 (SHANK1 PDZ [1]; [5]): 19 ± 3 µM
4.6 ± 0.2 | 7.3 ± 0.6 | CC(C)C[C@H](NC(=O)[C@H](CCCNC(=N)N)NC(=O)[C@@H](NC(=O)CCCC(=O)N/N=C/c1ccccc1C(=O)O)[C@@H](C)O)C(=O)O [4-A047] | EC50 [3]: 2400 ± 300 µM
3.1 ± 0.2 | 7.5 ± 0.8 | CC(C)C[C@H](NC(=O)[C@H](CCCNC(=N)N)NC(=O)[C@@H](NC(=O)CCCC(=O)N/N=C/c1ccc(C(=O)O)cc1)[C@@H](C)O)C(=O)O [4-A048] | –
3.1 ± 0.2 | 3.7 ± 0.4 | CC(C)C[C@H](NC(=O)[C@H](CCCNC(=N)N)NC(=O)[C@@H](NC(=O)CCCC(=O)N/N=C/c1ccc(Cl)cc1C(=O)O)[C@@H](C)O)C(=O)O [4-A144] | –
1.54 ± 0.05 | – | CC(C)C[C@H](NC(=O)[C@H](CCCNC(=N)N)NC(=O)[C@@H](NC(=O)CCCC(=O)N/N=C/c1cccc(OC(C(=O)O)c2ccccc2)c1)[C@@H](C)O)C(=O)O (stereo partly drawn) [4-A161] | –
– | – | CC(C)C[C@H](NC(=O)[C@H](CCCNC(=N)N)NC(=O)[C@@H](NC(=O)[C@H](CCC(N)=O)NC(=O)[C@H](C)NC(=O)[C@H](CCC(=O)O)NC(=O)CCCCCNC(=S)Nc1ccc2c(c1)C(=O)OC21c2ccc(O)cc2Oc2cc(O)ccc21)[C@@H](C)O)C(=O)O [FITC-Ahx-GKAP] ({FITC-Ahx}-EAQTRL-OH; C-terminus assumed) | Kd (SHANK1 PDZ [4]; 50 mM NH4Ac pH 6.5, 10 mM aniline, 50 nM tracer, read after 24 hr incubation at room temperature, read-out: KD (Fig. S3)): 0.96 ± 0.08 µM; Kd (SHANK1 PDZ [4]; KD (initial) of FITC labelled GKAP, pH 6.5, 10 mM aniline, did not significantly change over 24 hours): ~1 µM
– | – | Ac-EAQTRL-OH [GKAP, Ac-EAQTRL-COOH, reference compound] | n (ITC stoichiometry) (SHANK1 PDZ [2]): 1.07 ± 0.01; ΔH (SHANK1 PDZ [2]): -7.07 ± 0.096 kcal/mol; ΔS (SHANK1 PDZ [2]): 9.7 J mol^−1 K^−1; ΔΔG (ΔGCompound-ΔGAc-TRL-OH) (SHANK1 PDZ [2]; [6]): -1.44 kcal/mol
